Data as given in PubChem BioAssay (NCI).
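Cells were grown in 96-well plates and exposed to each compound for 48 hours at five concentrations; endpoints were interpolated linearly between bracketing concentrations, or set to the highest concentration if not reached. The concentration for full growth arrest is given as TGI.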

What was measured:
Test in all cases: NCI tumour cell line growth inhibition, 48 h
[1] = tested on: SN12C renal
[2] = tested on: SK-MEL-2 melanoma
[3] = tested on: OVCAR-3 ovarian
[4] = tested on: A498 renal
[5] = tested on: NCI-H460 lung
[6] = tested on: EKVX NSCLC
[7] = tested on: MOLT-4 leukemia
[8] = tested on: COLO 205 colon
[9] = tested on: RPMI-8226 leukemia
[10] = tested on: UO-31 renal
[11] = tested on: HCT-15 colon

Structure (SMILES)	TGI [1]	TGI [2]	TGI [3]	TGI [4]	TGI [5]	TGI [6]	TGI [7]	TGI [8]	TGI [9]	TGI [10]	TGI [11]
CCOC(=O)c1sc2nc(SC)nc3c2c1NC(=O)CN3c1ccc(F)cc1	69.1 µM	> 100 µM	> 100 µM	98.7 µM	> 100 µM	> 100 µM	> 100 µM	> 100 µM	> 100 µM	46.9 µM	
CO[P@@]1(=O)O[C@@H](c2ccccc2)[C@H](O)[C@@]1(O)c1ccccc1	> 100 µM	> 100 µM	> 100 µM	> 100 µM	> 100 µM	> 100 µM	> 100 µM	> 100 µM		> 100 µM	> 100 µM
CCn1c2ccccc2c2ccc(C3C4C(=O)N(c5cccc6ccccc56)C(=O)C4ON3C(C(N)=O)c3ccccc3)cc21 (stereo unspecified)	> 25 µM	> 25 µM	> 25 µM	6.96 µM	> 25 µM	> 25 µM	> 25 µM	> 25 µM		> 25 µM	> 25 µM
Nc1ccc(Oc2ccc(C34CC5C6CC7(c8ccc(Oc9ccc(N)cc9)cc8)CC5C(C3)C(C7)C6C4)cc2)cc1	> 100 µM	> 100 µM	> 100 µM	> 100 µM	> 100 µM	> 100 µM	> 100 µM	> 100 µM	> 100 µM	> 100 µM	> 100 µM
CCCCCCC(=O)OC[n+]1ccc(-c2c(COC(=O)NC(C)C)c(COC(=O)NC(C)C)c3n2CCC3)cc1	> 100 µM	> 100 µM	> 100 µM	> 94.2 µM	> 100 µM	> 100 µM	> 94.3 µM	> 100 µM	98.9 µM	> 100 µM	> 100 µM
CCCCC(CC)C(=O)Oc1ccc(C(=O)c2ccccc2)c(O)c1 (stereo unspecified)	> 100 µM	> 100 µM	> 100 µM	> 100 µM	> 100 µM	> 100 µM	> 100 µM	> 100 µM	> 100 µM	> 100 µM	> 100 µM
Nc1[nH]c(=O)nc2c1cnn2COCCO	> 100 µM	> 100 µM		> 100 µM	> 100 µM	> 100 µM	> 100 µM	> 100 µM	> 100 µM	> 100 µM	> 100 µM
CCCCC/C=C\C=C\CCCCCCCCC(=O)OC	> 100 µM	> 100 µM	> 100 µM	> 100 µM	> 100 µM	> 100 µM	> 100 µM	> 100 µM	> 100 µM	31.3 µM	> 100 µM
C/C(=C\[Si](C)(C)c1ccco1)C(C)(O)[C@H](C)O (stereo partly specified)	> 100 µM	> 100 µM	> 100 µM	> 100 µM	> 100 µM	> 100 µM	> 100 µM	> 100 µM	> 100 µM		> 100 µM
CC(C)CC(N)C(=O)NC(CNC(CCC(N)=O)C(=O)NC(CC(C)C)C(=O)NC(CC(C)C)C(=O)O)Cc1ccc2ccccc2c1 (stereo unspecified)	> 10 µM	> 10 µM	> 10 µM	> 10 µM	> 10 µM	> 10 µM	> 10 µM	> 10 µM	> 10 µM	> 10 µM	> 10 µM
CC1CC(C)(O)C2C3(C)CCCC2(COC3=O)C12CCC1(CCOC1=O)O2 (stereo unspecified)	> 250 µM	> 250 µM	> 250 µM	248 µM	> 250 µM	> 250 µM	> 250 µM	> 250 µM	> 250 µM	> 250 µM	> 250 µM
[O-]c1c2c(nn1-c1ccc(F)cc1)c1ccccc1c[n+]2Cc1ccccc1	52.5 µM	9.23 µM	22.1 µM	85.3 µM	29.7 µM	56.4 µM	81.5 µM	4.52 µM	47.1 µM	54.9 µM	39.1 µM
CN(C)CCC(=O)[C@@]1(O)CC[C@H]2[C@@H]3CC=C4C[C@@H](O)CC[C@]4(C)[C@H]3CC[C@@]21C	32.2 µM	37.1 µM	29.7 µM	29.7 µM	30.9 µM	42.6 µM	53.1 µM	32.9 µM	7.01 µM	31.7 µM	45.1 µM
CCCCCCCCCCCCCCCCCCN(C)CC(COC)OP(=O)([O-])OCC[N+](C)(C)C (stereo unspecified)	14.6 µM	30.2 µM	11.2 µM	14 µM	2.35 µM	28.1 µM	11 µM	2.6 µM	3.14 µM	20.2 µM	13.6 µM
CC1(C=O)CC(CCc2ccccc2)NC1Cc1ccc(O)cc1 (stereo unspecified)	31.6 µM	29 µM	33.2 µM	27.9 µM	31.8 µM	29 µM	38.2 µM	23.3 µM	40.7 µM	28.4 µM	43.3 µM
Cc1csc2nc(-c3cc([N+](=O)[O-])c(Cl)cc3Cl)c(/C=N/N=C(N)N)n12	29.8 µM	26.1 µM	43.6 µM	35 µM	45.7 µM	38.2 µM	18.8 µM	36.8 µM	56.5 µM	29.4 µM	45.2 µM
